According to article PMC9833666, “Designing and identifying β-hairpin peptide macrocycles with antibiotic potential” (Science Advances, 2023):
Like-named read-outs stand apart in the source and are kept apart here. Bridge positions count the residues as written; N and C are the ends. Ends that are not written are not given here. Peptide text beside a SMILES is read from it.

Legend:
[1] = system: Single-donor human red blood cells; experiment: Hemolysis assay; type: cell-based
Description: Single-donor human red blood cells (Innovative Research, no. IWB3ALS) were washed in PBS and adjusted to a concentration of 1 × 10^9 cells/ml. Each peptide was added individually to 200 μl of cells at a concentration of either 300 μg/ml (SySA library) or 128 μg/ml (SySA-5 optimization library) in a 96-well polypropylene plate (Corning, 3879). PBS alone and 1% Triton X-100 were used for background normalization and 100% hemolysis, respectively. Each reaction was set up in triplicate. Plates were incubated for 3 hours at 37°C. Following incubation, samples were centrifuged at 800g for 20 min, and 100 μl of supernatant was transferred to a flat-bottom 96-well plate (Genesse, 25-104). Percent hemolysis for each sample was determined by normalizing the absorbance at 540 nm for each sample to the average background and dividing by the average absorbance for 1% Triton X-100 (100% hemolysis). Error bars represent 1 SD of triplicate samples.

[2] = system: Escherichia coli W3110; type: cell-based; settings: for Ec W3110 MIC MH: E. coli W3110, MH medium; for Ec W3110 MIC RPMI: E. coli W3110, RPMI medium
[3] = SyPA peptides, human red blood cells, 3 h 37°C, relative to 1% Triton X-100, peptide concentration not stated for SyPA, n=3

| Ec W3110 MIC MH [2] [mg/L] | Ec W3110 MIC RPMI [2] [mg/L] | Compound | hemolysis [1] [%] | further results |
| --- | --- | --- | --- | --- |
| > 256 | > 256 | CLTVRLDNRGRGLKISVEVC (disulfide 1-20 (inferred)) [SySA-60] | 0.53 | – |
| > 256 | > 256 | CRIRINVNNGSGRVRLELEC (disulfide 1-20 (inferred)) [SySA-77] | 0.32 | – |
| > 256 | > 256 | CRIRIDVNNGSGRLKLQLEC (disulfide 1-20 (inferred)) [SySA-21] | 0.42 | – |
| > 256 | > 256 | CVRVRLDNRGGGLRISLEVC (disulfide 1-20 (inferred)) [SySA-2] | 0.57 | – |
| – | – | CC(C)C[C@@H]1NC(=O)[C@H](CCCNC(=N)N)NC(=O)[C@H](C(C)C)NC(=O)[C@H](CCCNC(=N)N)NC(=O)[C@H](C(C)C)NC(=O)[C@@H](N)CSSC[C@@H](C(=O)O)NC(=O)[C@H](C(C)C)NC(=O)[C@H](CCC(N)=O)NC(=O)[C@H](C(C)C)NC(=O)[C@H](CO)NC(=O)[C@H](C(C)C)NC(=O)[C@H](CCCNC(=N)N)NC(=O)[C@H](C(C)C)NC(=O)[C@H](CCCNC(=N)N)NC(=O)[C@H](CCCNC(=N)N)NC(=O)[C@H](CCCNC(=N)N)NC(=O)[C@H](CCCNC(=N)N)NC(=O)[C@H](CC(N)=O)NC(=O)[C@H](CC(N)=O)NC1=O [SyPA-10] (H-CVRVRLNNRRRRVRVSVQVC-OH; disulfide 1-20) | – | %Hemo [1, 3]: 1.99%; W3110 MIC ([2]; SyPA peptides, MH, replicate 2): 16 mg/L; W3110 MIC ([2]; SyPA peptides, MH, replicate 3): 16 mg/L |
| > 256 | > 256 | CRIRIDVNNRSGTLKLQVQC (disulfide 1-20 (inferred)) [SySA-36] | -0.0122 | – |
| > 256 | > 256 | CRVRVNINNGSGRVKLELEC (disulfide 1-20 (inferred)) [SySA-19] | 0.33 | – |
| > 256 | > 256 | CRIRINIDNRSGTVRLEVQC (disulfide 1-20 (inferred)) [SySA-3] | 0.24 | – |
| > 256 | > 256 | CRIRINVNNRGRTLKLEVQC (disulfide 1-20 (inferred)) [SySA-10] | 0.40 | – |
| > 256 | > 256 | CVTVRVNNRGRGLRISLQVC (disulfide 1-20 (inferred)) [SySA-47] | 0.48 | – |
| > 256 | > 256 | CLTIRVDNRGSRVRITLEVC (disulfide 1-20 (inferred)) [SySA-70] | 0.92 | – |
| > 256 | > 256 | CLTVRLDNRGSGLRITVEVC (disulfide 1-20 (inferred)) [SySA-44] | -0.0761 | – |
| > 256 | > 256 | CRIRVNINNRRRTLRLEVEC (disulfide 1-20 (inferred)) [SySA-35] | 0.12 | – |
| > 256 | > 256 | CLRVRVNDRGSGVKITVEVC (disulfide 1-20 (inferred)) [SySA-39] | 0.28 | – |
| > 256 | > 256 | CVRVRVNNRGGGVRITLQVC (disulfide 1-20 (inferred)) [SySA-24] | 0.38 | – |
| > 256 | > 256 | CRIKVDINNRSGRVKLQVQC (disulfide 1-20 (inferred)) [SySA-20] | 0.42 | – |
| > 256 | > 256 | CVRIRLNNGGSGVKVTVEVC (disulfide 1-20 (inferred)) [SySA-85] | 1.81 | – |

| Ec W3110 MIC MH [2] [mg/L] | Ec W3110 MIC RPMI [2] [mg/L] | Compound | hemolysis [1] [%] | further results |
| --- | --- | --- | --- | --- |
| > 256 | > 256 | CRVRINIDNRSGRVKLEVQC (disulfide 1-20 (inferred)) [SySA-87] | 4.63 | – |
| > 256 | > 256 | CLTVRVNNRGSGVKVSLEVC (disulfide 1-20 (inferred)) [SySA-54] | 1.51 | – |
| > 256 | > 256 | CVTVRVNNRGGRLKVSVEVC (disulfide 1-20 (inferred)) [SySA-56] | 0.19 | – |
| – | – | CC[C@H](C)[C@@H]1NC(=O)[C@H](CCCNC(=N)N)NC(=O)[C@H](C(C)C)NC(=O)[C@@H](N)CSSC[C@@H](C(=O)O)NC(=O)[C@H](C(C)C)NC(=O)[C@H](CCC(N)=O)NC(=O)[C@H](C(C)C)NC(=O)[C@H](CO)NC(=O)[C@H](C(C)C)NC(=O)[C@H](CCCNC(=N)N)NC(=O)[C@H](C(C)C)NC(=O)[C@H](CCCNC(=N)N)NC(=O)[C@H](CCCNC(=N)N)NC(=O)[C@H](CCCNC(=N)N)NC(=O)[C@H](CCCNC(=N)N)NC(=O)[C@H](CC(N)=O)NC(=O)[C@H](CC(N)=O)NC(=O)[C@H](CC(C)C)NC(=O)[C@H](CCCNC(=N)N)NC1=O [SyPA-6] (H-CVRIRLNNRRRRVRVSVQVC-OH; disulfide 1-20) | – | %Hemo [1, 3]: 0.90%; W3110 MIC ([2]; SyPA peptides, MH, replicate 1): 32 mg/L; W3110 MIC ([2]; SyPA peptides, MH, replicate 2): 32 mg/L; W3110 MIC ([2]; SyPA peptides, MH, replicate 3): 32 mg/L |
| > 256 | > 256 | CRVRVNINNRGGTVKLQLQC (disulfide 1-20 (inferred)) [SySA-13] | 0.91 | – |
| > 256 | > 256 | CVTIRVDNRGSRLKISVQVC (disulfide 1-20 (inferred)) [SySA-33] | 0.26 | – |
| > 256 | > 256 | CRVKINVNNRGRTLKLELEC (disulfide 1-20 (inferred)) [SySA-58] | 0.000315 | – |
| > 256 | > 256 | CLRIRVDNRGSGVKVTLEVC (disulfide 1-20 (inferred)) [SySA-57] | 0.25 | – |
| > 256 | > 256 | CVRVRVDNRGSRVKVTVQVC (disulfide 1-20 (inferred)) [SySA-12] | 0.30 | – |
| > 256 | > 256 | CRVKVNINNGSRRLRLQVQC (disulfide 1-20 (inferred)) [SySA-50] | 0.34 | – |
| > 256 | > 256 | CLRIRLNNRGRGVKVSVEVC (disulfide 1-20 (inferred)) [SySA-46] | 0.47 | – |
| > 256 | > 256 | CRVRIDIDNRSRTLKLEVQC (disulfide 1-20 (inferred)) [SySA-64] | 0.70 | – |
| – | – | CC[C@H](C)[C@@H]1NC(=O)[C@H](CCCNC(=N)N)NC(=O)[C@H](CC(C)C)NC(=O)[C@H](CCCNC(=N)N)NC(=O)CNC(=O)[C@H](CCCNC(=N)N)NC(=O)[C@H](CCCNC(=N)N)NC(=O)[C@H](CC(=O)O)NC(=O)[C@H](CC(=O)O)NC(=O)[C@H](CC(C)C)NC(=O)[C@H](CCCNC(=N)N)NC(=O)[C@H](C(C)C)NC(=O)[C@H](CCCNC(=N)N)NC(=O)[C@H](CC(C)C)NC(=O)[C@@H](N)CSSC[C@@H](C(=O)O)NC(=O)[C@H](C(C)C)NC(=O)[C@H](CCC(N)=O)NC(=O)[C@H](CC(C)C)NC(=O)[C@H](CO)NC1=O [SyPA-9] (H-CLRVRLDDRRGRLRISLQVC-OH; disulfide 1-20) | – | %Hemo [1]: 11.36%; W3110 MIC ([2]; W3110): 64 mg/L |
| > 256 | > 256 | CRVKINIDNRSRRVKLQVQC (disulfide 1-20 (inferred)) [SySA-6] | 0.66 | – |
| > 256 | > 256 | CLTIRVNNRRGRVRISVQVC (disulfide 1-20 (inferred)) [SySA-15] | 0.80 | – |
| > 256 | > 256 | CLRVRVNNRRSGVRVTLEVC (disulfide 1-20 (inferred)) [SySA-67] | 0.70 | – |

| Compound | Ec W3110 MIC MH [2] [mg/L] | Ec W3110 MIC RPMI [2] [mg/L] | hemolysis [1] [%] | further results |
| --- | --- | --- | --- | --- |
| NC[C@H]1O[C@H](O[C@H]2[C@H](O)[C@@H](O[C@H]3O[C@H](CO)[C@@H](O)[C@H](N)[C@H]3O)[C@H](N)C[C@@H]2N)[C@H](O)[C@@H](O)[C@@H]1O [kanamycin, reference compound] | 1 | – | – | Hemolysis (%) ([1]; human red blood cells 1x10^9 cells/ml, peptide 300 μg/ml, 3 h 37°C, relative to 1% Triton X-100, A540, ± 1 SD, n=3): 0.1 ± 0.03%; hemolysis ([1]; human red blood cells, st dev in separate column): 0.0147%; W3110 MIC MHII ([2]; E. coli W3110, MHII medium): 2 mg/L; fold increase in MHII MIC relative to standard MH ([2]; cation-adjusted MH (MHII) vs standard MH): twofold |
